The values below come from patent US9738614B2, “Malignant and non-malignant disease treatment with Ras antagonists” (PISCES THERAPEUTICS, LLC, priority 2011, dated 2017).

As a reminder, the EC50 is the concentration at which the effect is half-maximal. Read a low EC50 as greater potency.

One data set has as its system sNF94.3 cells. Description: IC50 assay with sNF94.3 MPNST cells. It is filed as cell-based. Particulars: Homo sapiens, 0.5 to 20 μM, read-out: half-maximal effect on viability. As for the experimental part:
(§1) U87MG cells were seeded in a 24-well plate, 5000 cells per well, and incubated overnight at 37° C. in serum-free media. The next day they were treated in triplicate with 50 and 100 μM of each test compound (1), (2), (3), (4), and (5) and the reference compound FTS. After five days, the cells were trypsinized (0.5%), stained with trypan blue, and counted to determine the cell number per well. The half-maximal inhibitory concentration (IC50) values were calculated using Multiplex Reader-Fit software made by MiraiBio Group, Hitachi Solutions America, Ltd. In a typical experiment, the control wells averaged 138,000 cells. The results are presented graphically in FIG. 1. The test compounds at 50 μM allowed the following U87MG cell proliferation compared to control: compound (1)—37%, compound (2)—18%, compound (3)—10%, compound (4)—40%, and compound (5)—0%. The reference compound FTS at 50 μM allowed 7% cell proliferation compared to control.
(§2) Two additional MPNST cell lines, sNF94.3 and sNFO2.2, were subjected to IC50 assays similar to Examples 6 and 11 above. Like the ST88-14 cells from Example 11, the sNF94.3 and sNFO2.2 cells came from NF-1 patients too.

Data set [1] has as its system hematopoietic progenitor cells (cord blood low density cells). Briefly: Human hematopoietic progenitor cell toxicity (colony assay). The data set is classed as cell-based. Particulars: 12 days; 25 and 2.5 μM for compound (3), 2.5 and 0.25 μM for compound (5). The protocol:
Cord blood low density cells were plated at 1×10^5 cells per plate in 1 mL complete methylcellulose in the presence of each test compound (3) and (5) and incubated for 12 days in a CO2 incubator. Colony-forming unit-granulocyte (CFU-GM), burst-forming unit-erythroid (BFU-E), and mixed colonies were counted under an inverted microscope. […] The test compounds were not toxic to the hematopoietic progenitor cells.

The test system of the next data set is ECC1 cells. Description: IC50 assay with ECC1 endometrial cancer cells. Particulars: Homo sapiens, ECC-1, 1 to 50 μM, read-out: half-maximal inhibition of viability. It is filed as cell-based. The protocol: as §1
ECC1 (well differentiated) and USPC1 (poorly differentiated) endometrial cancer cells were subjected to IC50 assays similar to Example 6 above. The cells were grown in concentrations of compound (5) ranging from 1 to 50 μM.

A further data set concerns EJ cells. Briefly: IC50 assay with EJ bladder cancer cells. The data set is classed as cell-based. Particulars: Homo sapiens, 1.5 to 25 μM, read-out: half-maximal inhibition of viability. As for the experimental part: as §1
EJ bladder cancer cells, which harbor a H-Ras mutation, were subjected to an IC50 assay similar to Example 6 above. EJ cells were grown in concentrations of compound (5) ranging from 1.5 to 25 μM.

The subject of data set [2] is ST88-14 cells. Description: ST88-14 MPNST flank tumors in nude mice. The data set is classed as in vivo, mouse. Particulars: 5 mg/kg or 10 mg/kg intraperitoneally once a day. As for the experimental part: ST88-14 cells were injected into the flanks of nude mice and tumors were allowed to grow. When their lengths and widths could readily be determined by palpation, the animals were treated with compound (5) at doses of 5 mg/kg or 10 mg/kg intraperitoneally once a day or vehicle. Tumor dimensions were determined over the course of a 35 day treatment period at the end of which the animals were killed. At this point the tumors were removed and weighed.

Data set [3] has as its system activated, GTP-bound form of Ras (Ras-GTP). Briefly: Ras-GTP Western blot in SCF-stimulated NF-1+/- mast cells. Particulars: 10-15 μM, 3 minutes after SCF stimulation (FIG. 4A). It is filed as cell-based. As for the experimental part: Purified populations of NF-1+/−mast cells were stimulated with a maximum stimulating concentration of stem cell factor (SCF) in the presence of a control or compound (5) at concentrations of 10-15 μM. The activated, GTP-bound form of Ras (Ras-GTP) was measured 3 minutes subsequently using Western blot analysis. […] In parallel experiments, mast cell proliferation was measured using 3H-thymidine incorporation 24 hours after SCF stimulation in the presence of a control or compound (5) at concentrations of 0-12.5 μM. […] Each asterisk in FIG. 4B represents a statistical difference relative to the control using analysis of variance. (Yang, Feng-Chun, et. al. J Clin Invest 2003, 112(12), 1851-1861; Yang, Feng-Chun, et. al. Hum Mol Genet 2006, 15(11), 1921-1930).

Data set [4] relates to primary human lung fibroblasts. Description: Inhibition of TGF-β induced myofibroblast formation (α-SMA Western blot). Particulars: Homo sapiens, Fibroblast, TGF-β 72 hours, 0.5 to 2 μM. It is filed as cell-based. As for the experimental part: Primary human lung fibroblasts were stimulated for 72 hours with transforming growth factor beta (TGF-β) to induce their differentiation to an alpha smooth muscle actin (α-SMA) expressing activated myofibroblasts cell fate. […] The activin like kinase receptor (ALK5) inhibitor SB431542 was used as a positive control. Myofibroblast formation was evaluated by Western blot by examining changes in α-SMA levels.
For orientation: In western blotting, separated proteins are transferred to a membrane and probed.

The subject of the next data set is sNFO2.2 cells. Briefly: IC50 assay with sNFO2.2 MPNST cells. The data set is classed as cell-based. Particulars: Homo sapiens, 0.5 to 20 μM, read-out: half-maximal effect on viability. As for the experimental part:
as §1, §2

The test system of another data set is MCF-7 cells. Description: IC50 assay with MCF-7 breast cancer cells. It is filed as cell-based. Particulars: Homo sapiens, MCF7, 0.6 to 10 μM, read-out: half-maximal decrease in viability. As for the experimental part:
as §1
MCF-7 breast cancer cells, which harbor an activating “K-Ras variant” mutation, were subjected to an IC50 assay similar to Example 6 above. This “K-Ras variant” mutation is in a site that a microRNA binds to, destabilizing the mRNA that encodes Ras. […] MCF-7 cells were grown in concentrations of compound (5) ranging from 0.6 to 10 μM.

Another data set concerns LAM cells. Briefly: IC50 assay with lymphangioleiomyomatosis (LAM) cells. The data set is classed as cell-based. Particulars: Homo sapiens, 0.1 to 50 μM, read-out: half-maximal inhibition of viability. As for the experimental part: as §1
Human lymphangioleiomyomatosis (LAM) cells were subjected to an IC50 assay similar to Example 6 above.

Data set [5] relates to ST88-14 cells. Briefly: IC50 assay with ST88-14 MPNST cells. The data set is classed as cell-based, human. Particulars: 0.1 to 50 μM, two separate experiments, read-out: half-maximal effects on cell viability. The protocol:
as §1
IC50 assays similar to Example 6 above were performed with ST88-14 cells derived from a MPNST removed from a patient who had NF-1. The cells have loss-of-function mutations in both copies of the NF-1 gene, neurofibromin, which is discussed further above. ST88-14 cells were grown in concentrations of compound (5) ranging from 0.1 to 50 μM in two separate experiments. […]

In the next data set the test system is JW16 cells. Description: IC50 assay with JW16 mouse MPNST cells. Particulars: 0.5 to 20 μM, read-out: half-maximal effect on viability. It is filed as cell-based. As for the experimental part:
as §1
Mouse models of NF-1 related MPNST have been made. Cells from two such mice, JW16 and JW19, have been isolated and propagated. The JW16 and JW19 cells were subjected to IC50 assays similar to Example 6 above.

Structures are written as SMILES. Like-named read-outs stand apart in the source and are kept apart here.

On to `CC(C)=CCC/C(C)=C/CC/C(C)=C/CSc1ccccc1C1=NCCN1` [compound (5), 2-(2-{[(2E,6E)-3,7,11-trimethyldodeca-2,6,10-trien-1-yl]sulfanyl}phenyl)-4,5-dihydro-1H-imidazole], for which the IC50 in the data set with sNF94.3 cells is 2700 nM; in the data set on ECC1 cells, 4000 nM; in the data set with EJ cells it was 2500 nM; in the data set with sNFO2.2 cells it was 2900 nM; with MCF-7 cells it was 2000 nM; in the data set with LAM cells, 4000 nM. The IC50 is 5500 nM with ST88-14 cells [5] (Homo sapiens, ST88-14, ST88-14 cells); 6600 nM in the data set with ST88-14 cells [5] (ST88-14 cells); 2200 nM in the data set on JW16 cells. For the same molecule, in [1], the “toxicity to hematopoietic progenitor cells (CFU-GM, BFU-E, mixed colonies)” value is “not toxic”. Further, the tumor size entry with ST88-14 cells [2] (35 day treatment) is given as “dose dependent decrease”. Also, in the data set with ST88-14 cells [2] (end of 35 day treatment), the tumor weight result is listed as “dose dependent decrease”. Also, the “level of Ras-GTP relative to the control” value in [3] is listed as “significantly reduced”. Besides, in data set [4], the EC50 was around 1000 nM.
